The source of these data is ChEMBL document CHEMBL5126551, “Spiral molecules with antimalarial activities: A review” (Eur J Med Chem, 2022).

As a reminder, the EC50 is the concentration that produces a half-maximal response. Usually IC50 stands for the concentration needed to halve the response being measured. One may read the IC90 as the concentration needed for an effect of 90%.

The structures appear in SMILES notation. ≈ marks a conversion by molar mass, not a printed value.

Experiment [1] has as its system Plasmodium falciparum. As to the kind of experiment: Antimalarial activity against multidrug-resistant Plasmodium falciparum Dd2 infected in human red blood cells assessed as reduction in parasite growth incubated for 72 hrs by SYBR green I-based DNA quantification assay. The class given is functional, organism-based, Red blood cell. The following applies: Dd2, Erythrocyte.

Experiment [2] has as its system Plasmodium falciparum. The experiment is described as follows: Antimalarial activity against chloroquine-sensitive Plasmodium falciparum 3D7 infected in human red blood cells assessed as reduction in parasite growth incubated for 72 hrs by SYBR green I-based DNA quantification assay. In kind it is functional, organism-based, Red blood cell. The following applies: 3D7, Erythrocyte.

Experiment [3] deals with Plasmodium falciparum. As to the kind of experiment: Antimalarial activity against chloroquine-sensitive Plasmodium falciparum NF54 infected in human red blood cells assessed as reduction in parasite growth incubated for 72 hrs by SYBR green I-based DNA quantification assay. The class given is functional, organism-based, Red blood cell. The following applies: NF54, Erythrocyte.

Experiment [4] deals with Plasmodium falciparum. As to the kind of experiment: Antimalarial activity against chloroquine-sensitive Plasmodium falciparum D6 assessed as inhibition of parasite growth. The class given is functional, organism-based.
Experiment [5] relates to Plasmodium falciparum. As to the kind of experiment: Antimalarial activity against chloroquine-resistant Plasmodium falciparum W2 assessed as inhibition of parasite growth. The class given is functional, organism-based.
Experiment [6] concerns Plasmodium falciparum. The experiment is described as follows: Antimalarial activity against chloroquine resistant Plasmodium falciparum K1 assessed as inhibition of parasite growth incubated for 72 hrs by HRP2-based ELISA assay. The following applies: K1, 72 h. In kind it is functional, organism-based.
Experiment [7] deals with Plasmodium falciparum. The experiment is described as follows: Antimalarial activity against drug-resistant Plasmodium falciparum K1 assessed as inhibition of parasite growth. In kind it is functional, organism-based.
The subject of experiment [8] is Plasmodium falciparum. As to the kind of experiment: Antimalarial activity against drug-sensitive Plasmodium falciparum FCR3 assessed as inhibition of parasite growth. In kind it is functional, organism-based.
The subject of experiment [9] is Plasmodium falciparum. The experiment is described as follows: Antimalarial activity against multidrug-resistant early ring stage Plasmodium falciparum K14 infected in human erythrocytes assessed as inhibition of parasite growth incubated for 48 hrs by [3H]-hypoxanthine incorporation assay. In kind it is functional, organism-based. The following applies: K14, Erythrocyte.

The subject of experiment [10] is Plasmodium falciparum. The experiment is described as follows: Antimalarial activity against Plasmodium falciparum 3D7 infected in human erythrocytes assessed as reduction in parasite growth measured after 72 hrs by microscopic analysis. The class given is functional, organism-based. The following applies: 3D7, Erythrocyte.
For experiment [11], the system named is Plasmodium falciparum. As to the kind of experiment: Antimalarial activity against Plasmodium falciparum Dd2 infected in human erythrocytes assessed as reduction in parasite growth measured after 72 hrs by microscopic analysis. The class given is functional, organism-based. The following applies: Dd2, Erythrocyte.
The subject of experiment [12] is Plasmodium falciparum. As to the kind of experiment: Antimalarial activity against Plasmodium falciparum infected in human […] assessed as inhibition of parasite growth incubated for 30 hrs by [3H]-hypoxanthine incorporation assay based liquid scintillation spectrometric method. The class given is functional, organism-based.
Experiment [13] relates to Plasmodium falciparum. The experiment is described as follows: Antimalarial activity against chloroquine-sensitive Plasmodium falciparum 3D7 infected in human erythrocyte assessed as inhibition of parasite growth incubated for 66 hrs by [3H]-hypoxanthine incorporation assay based liquid scintillation spectrometric method. The class given is functional, organism-based. The following applies: 3D7, Erythrocyte.

Experiment [14] has as its system Plasmodium falciparum. The experiment is described as follows: Antimalarial activity against chloroquine-sensitive Plasmodium falciparum NF54 infected in human red blood cells assessed as inhibition of parasite growth incubated for 72 hrs by [3H]-hypoxanthine incorporation assay based liquid scintillation counter method. The following applies: NF54, Erythrocyte. The class given is functional, organism-based, Red blood cell.

Experiment [15] concerns Plasmodium falciparum. As to the kind of experiment: Antimalarial activity against chloroquine and pyrimethamine resistant Plasmodium falciparum K1 infected in human red blood cells assessed as inhibition of parasite growth incubated for 72 hrs by [3H]-hypoxanthine incorporation assay based liquid scintillation counter method. In kind it is functional, organism-based, Red blood cell. The following applies: K1, Erythrocyte.

The subject of experiment [16] is Plasmodium falciparum. The experiment is described as follows: Antimalarial activity against chloroquine-resistant Plasmodium falciparum FCB-2 infected in human erythrocyte assessed as inhibition of parasite growth incubated for 48 hrs by [3H]-hypoxanthine incorporation assay based liquid scintillation counter method. The following applies: FCB-2, Erythrocyte. The class given is functional, organism-based.

For experiment [17], the system named is Plasmodium falciparum. The experiment is described as follows: Antimalarial activity against chloroquine, amodiaquine, quinine and artesunate-resistant Plasmodium falciparum NF-54 infected in human erythrocyte assessed as inhibition of parasite growth incubated for 48 hrs by [3H]-hypoxanthine incorporation assay based liquid scintillation counter method. In kind it is functional, organism-based. The following applies: NF-54, Erythrocyte.

Experiment [18] relates to Plasmodium falciparum. As to the kind of experiment: Antimalarial activity against Plasmodium falciparum TM90C2B assessed as inhibition of parasite growth. In kind it is functional, organism-based.
Experiment [19] deals with Plasmodium falciparum. As to the kind of experiment: Antimalarial activity against Plasmodium falciparum 7G8 assessed as inhibition of parasite growth. In kind it is functional, organism-based.
Experiment [20] relates to Plasmodium falciparum. As to the kind of experiment: Antimalarial activity against Plasmodium falciparum Dd2 assessed as inhibition of parasite growth. In kind it is functional, organism-based.
Experiment [21] concerns Plasmodium falciparum. The experiment is described as follows: Antimalarial activity against Plasmodium falciparum D6 assessed as inhibition of parasite growth. The class given is functional, organism-based.
Experiment [22] has as its system Plasmodium falciparum. As to the kind of experiment: Antimalarial activity against Plasmodium falciparum 3D7 assessed as inhibition of parasite growth. The class given is functional, organism-based.
Experiment [23] has as its system Plasmodium falciparum. As to the kind of experiment: Antimalarial activity against Plasmodium falciparum V1/S assessed as inhibition of parasite growth. The class given is functional, organism-based.
Experiment [24] relates to Plasmodium falciparum. The experiment is described as follows: Antimalarial activity against Plasmodium falciparum HB3 assessed as inhibition of parasite growth. The class given is functional, organism-based.
In experiment [25] the test system is Plasmodium falciparum. As to the kind of experiment: Antimalarial activity against Plasmodium falciparum FCB assessed as inhibition of parasite growth. The class given is functional, organism-based.
The test system of experiment [26] is Plasmodium falciparum. As to the kind of experiment: Antimalarial activity against Plasmodium falciparum 1 assessed as inhibition of parasite growth. In kind it is functional, organism-based.
Experiment [27] deals with Plasmodium falciparum. The experiment is described as follows: Antimalarial activity against chloroquine-sensitive Plasmodium falciparum 3D7 assessed as reduction in parasite growth incubated for 72 hrs by SYBR green I-based DNA quantification assay. The class given is functional, organism-based. The following applies: 3D7, 72 h.
Experiment [28] has as its system Plasmodium falciparum. The experiment is described as follows: Antimalarial activity against Plasmodium falciparum K1 infected in human red blood cells assessed as inhibition of parasite growth incubated for 48 hrs by Giema staining based assay. In kind it is functional, organism-based, Red blood cell. The following applies: K1, Erythrocyte.
Experiment [29] relates to Plasmodium falciparum. As to the kind of experiment: Antimalarial activity against Plasmodium falciparum Cam3.I^R539T assessed as inhibition of parasite growth measured after 6 hrs. In kind it is functional.

For `COc1cc2c(cc1OC)C1(NCC2)C(=O)Nc2ccc(Cl)cc21` (centres undefined), the EC50 in the experiment on Plasmodium falciparum [1] is 1730 nM; in the experiment with Plasmodium falciparum [2], 1860 nM; in the experiment on Plasmodium falciparum [3], 686 nM.

On to `CC(=O)O[C@H]1C[C@H]2[C@@H]([C@H](OC(C)=O)C[C@@H]3CC4(CC[C@@]32C)OOC2(CCC(C)CC2)OO4)[C@@H]2CC[C@H]([C@H](C)CCC(N)=O)[C@@]12C` (some centres undefined), for which the IC50 in the experiment on Plasmodium falciparum [4] was 1.17 nM; in the experiment with Plasmodium falciparum [5], 0.58 nM.

`COc1ccc(COCCC2NCCC23C(=O)Nc2ccccc23)cc1` (centres undefined): the IC50 in the experiment with Plasmodium falciparum [6] came to 10600 nM.

For the compound `CNCCc1cc(Br)c(OCCCNC(=O)N(C)CCc2cc(Br)c(OCCCNC(=O)C3=NO[C@]4(CC(Br)=C(OC)C(Br)=CO4)[C@@H]3O)c(Br)c2)c(Br)c1`, the values for the IC50 in the experiment with Plasmodium falciparum [7] and in the experiment on Plasmodium falciparum [8] were 1.03 µg/mL (≈ 0.904 µM) and 0.77 µg/mL (≈ 0.676 µM), respectively.

Consider `O=C1C=Cc2cc(O)c(O)cc2C12C(=O)C=Cc1cc(O)c(O)cc12`, for which the IC50 in the experiment with Plasmodium falciparum [9] worked out at 2320 nM.

For the compound `OCCCCCCC1COOC2(CCCCCCCCCCC2)OOC1`, the concentration for a half-maximal effect (EC50) came out at 332 nM in the experiment with Plasmodium falciparum [10] and 897 nM in the experiment on Plasmodium falciparum [11].

Turning to `CCCCCCCCCCCCCC1OC2CC(O)C=CC23C1C(=O)N3Cc1ccccc1` (centres undefined), the IC50 in the experiment with Plasmodium falciparum [12] was determined as 5550 nM; with Plasmodium falciparum [13], 860 nM.

As to `CCCCCCCCCCCCC[C@@H]1C[C@@H](O)C[C@]2(CCC3(C=CC(=O)C=C3)O2)O1` [ACULEATIN A], the IC50 in the experiment with Plasmodium falciparum [14] was 200 nM; in the experiment with Plasmodium falciparum [15], 180 nM.

Regarding `C[C@@H]1CC[C@]2(C[C@H]3C[C@H]4[C@@H]5CCC67OC6C(=O)CC[C@]7(C)[C@H]5CC[C@]4(C)[C@H]3[C@@H]2C)OC1` (some centres undefined), the IC50 with Plasmodium falciparum [16] was found to be 10100 nM; in the experiment on Plasmodium falciparum [17] it was 8500 nM.

In the case of `FC1CCN(CCOc2ccc(C3CCC4(CC3)OOC3(OO4)C4CCCC3CCC4)cc2)CC1` (centres undefined), the IC50 in the experiment on Plasmodium falciparum [18] stood at 7.3 nM; with Plasmodium falciparum [19] it was 2.9 nM; in the experiment with Plasmodium falciparum [20], 7.7 nM; in the experiment with Plasmodium falciparum [21], 8.5 nM; in the experiment with Plasmodium falciparum [22], 5.1 nM; in the experiment on Plasmodium falciparum [23] it was 4.2 nM. Besides, the results for the IC50 in the experiment on Plasmodium falciparum [24], in the experiment with Plasmodium falciparum [25] and in the experiment on Plasmodium falciparum [26] were 4.2 nM, 14 nM and 4.2 nM, respectively.

As to `OC(CN1CCC2(CC1)CC(O)c1ccc3ccccc3c1O2)c1ccc(F)c(F)c1` (centres undefined), the EC50 in the experiment on Plasmodium falciparum [27] was 390 nM.

`O=C1CCCCC12Oc1c(Cl)cccc1C2=O` (centres undefined): in the experiment with Plasmodium falciparum [28], the IC50 was 29.3 µg/mL (≈ 117 µM).

Consider `C[C@H]1[C@@H](O)O[C@@H]2O[C@@]3(C)CC[C@H]4[C@H](C)CC[C@@H]1[C@@]24OO3` [ARTENIMOL], for which the IC90 in the experiment with Plasmodium falciparum [29] came to 0.0027 µg/mL (≈ 0.0095 µM).
